The values that follow come from patent publication US7371729B2, “Boronic acid salts useful in parenteral formulations” (Trigen Limited, priority 2002, dated 2008).

Structures are written as SMILES. Where a name gives a salt, the structure may show the parent alone. Read-outs that look alike come from different tables or passages of the source.

The subject of data set [1] is platelet procoagulant activity. Kind of data set: Inhibition of platelet procoagulant activity (washed platelets, prothrombin activation). Type of data set: cell-based. Particulars: agonist Thrombin (1.15 nM). From the text:
Platelet pro-coagulant activity may be observed as the increase, in rate of activation of prothrombin by factor Xa in the presence of factor Va upon the addition of platelets pretreated with thrombin, caused by thrombin alone, collagen alone or a mixture of thrombin and collagen. This property is due to an increase in anionic phospholipid on the surface of the platelet with concomitant release of microvesicle from the surface. This is an essential physiological reaction and people whose platelets have reduced ability to generate procoagulant activity (Scott syndrome) show an increased tendency for bleeding.
Washed platelets were treated with either 1.15 nM thrombin, 23 μg/ml collagen or a mixture of both at the same concentration at 37° C. TRI 50b was added either for 1 minute prior to the addition of activator or immediately after the incubation with activator. Platelet procoagulant activity was determined as described previously (Goodwin C A et al, Biochem J. 1995 8, 308: 15-21).

Data set [2] concerns washed platelets. Kind of data set: Aggregation of washed platelets. Type of data set: cell-based.
The subject of data set [3] is platelet rich thrombus. In words: Rabbit extracorporeal shunt model. Type of data set: in vivo. The source says:
The technique describes an animal model in which a platelet rich thrombus is produced. The activity of TRI 50b and heparin are compared.
The carotid artery and jugular vein of anaesthetised rabbits were used to create an extracorporeal circuit containing a suspended foreign surface (silk thread). Thrombus deposition is initiated by creation of high sheer stress turbulent arterial blood flow, platelet activation, followed by coagulation in the presence of thrombogenic surfaces. Histopathological studies have shown that the thrombus is platelet rich.
NZW rabbits (males 2.5-3.5 kg) were used. The animals were allowed food and water up to the induction of anaesthesia.
Animals were premedicated with […] (Hypnorm) 0.15 ml total by intramuscular injection. General anaesthesia was induced with methohexitone (10 mg/ml) to effect, followed by endotracheal intubation. Anaesthesia was maintained with isoflurane (1-2.0%) carried in oxygen/nitrous oxide.
The animals were placed in dorsal recumbency and the ventral cervical region prepared for surgery. The left carotid artery and right jugular vein were exposed. The artery was cannulated with a large Portex® catheter (yellow gauge), cut to a suitable length. The vein was cannulated with a Silastic® catheter. The shunt comprised of a 5 cm length of ‘auto analyser’ line (purple/white gauge). Joins to the shunt on the arterial side were made with intermediate size Silastic® tubing. The shunt was filled with saline before exposure to the circulation. The right femoral artery was cannulated for the measurement of blood pressure.
The central section of the shunt contained a thread 3 centimetres in length. This consisted of 000 gauge Gutterman sewing silk so as to give four strands with a single knot at the end. (The knot section was outside the shunt).
Blood flow velocity was determined by use of ‘Doppler’ probes (Crystal Biotech). A silastic probe was positioned over the carotid artery at the point of insertion of the arterial catheter. Flow was recorded on a chart recorder using heat sensitive paper.

Data set [4] in a line: Rat tail bleeding model. It counts as in vivo. As for the experimental part:
Bleeding times were determined in a rat tail bleeding model following intravenous administration of heparin and TRI 50b. The doses employed were chosen on the basis of their efficacy in the rat Wessler and dynamic models and were as follows:
Rats were anaesthetised with sodium pentabarbitone at 60 mg/kg (2.0 ml/kg of 30 mg/ml solution by ip. injection). Supplemental anaesthetic was given ip. as required.
A jugular vein was cannulated for the administration of test compound. The trachea was also cannulated with a suitable cannula and the animals allowed to breathe ‘room air’ spontaneously.
These were given in the appropriate vehicle at 1.0 ml/kg intravenously. Heparin was administered in saline, whilst TRI 50b was dissolved in ethanol, and then the resultant solution added to water for injection (1 part ethanol to 5 parts water).
Two minutes following compound administration the distal 2 mm of the animal's tail was sectioned with a new scalpel blade and the tail immersed in warm saline (37° C.) contained in a standard ‘universal’ container, so that the blood stream was clearly visible. The bleeding time recording was started immediately following transection until the cessation of blood flow from the tip of the tail.

Data set [5] in a line: i.v. pharmacokinetics in rats. Particulars: plasma, rat, 1.0 mg/kg iv; for half-life: read-out: Elimination half life; for MRT: read-out: Mean Residence Time (converted). Type of data set: in vivo. As to the method:
Rats, body weight circa 250-300 g were used.
Both compounds were given at a dose of 1.0 mg/kg iv.
This was dosed at 1.33 ml/kg (equivalent to 30 mg/kg).

Data set [6] in a line: Hydrolysis of TRI 50b in acid conditions (HPLC assay). Type of data set: physicochemical. Particulars: for example of an HPLC assay. The source says: It has been discovered that TRI 50b tends to hydrolyse.
Data set [7] addresses human α-thrombin (Homo sapiens, UniProt P00734). Particulars: reported by J. Deadman et al, J. Med. Chem. 1995; cited from earlier work.
The nature of data set [8]: Stability: HPLC-PDA assay before and after drying over phosphorus pentoxide for 1 week. Type of data set: physicochemical. As to the method: An assay of TRI 50c and its sodium and lysine salts before and after drying.
For sample analysis, 5 mg of dried and non-dried material was weighed in a 5 mL volumetric flask and dissolved in 1 mL acetonitrile and filled up with demineralised water to 5 mL.
The quantitative evaluation was performed using an HPLC-PDA method.

A short description of data set [9]: Tolerability in beagle dogs after i.v. dose. It counts as in vivo. As to conditions: dog, 1.0 mg/kg i.v., total duration of the study. As for the experimental part:
Blood samples were taken into 3.8% tri-sodium citrate (1+8) at pre dose, 2, 5, 10, 20, 30, minutes post dose and then at 1, 2, 3, 4, 6, 8, 12 and 24 hours post dose. Plasma was prepared by centrifugation and frozen at minus 20° C. pending analysis.

In data set [10] the target is T1, Thrombin (Homo sapiens, UniProt P00734).
T1 construct: Thrombin obtained from HTI, via Cambridge Bioscience; purchased HTI, via Cambridge Bioscience
In words: Thrombin amidolytic assay (Vmax, S2238). Type of data set: biochemical. Particulars: FIG. 1; TRI 50b as external control. As to the method:
Chromogenic substrate S2238 dissolved to 4 mM (25 mg+10 mI) in water. Diluted to 50 μM with assay buffer for use in assay at 5 μM. (S2238 is H-D-Phe-Pip-Arg-pNA).
Thrombin obtained from HTI, via Cambridge Bioscience, and aliquoted at 1 mg/ml with assay buffer. Dilute to 100 ng/ml with assay buffer and then a further 1 in 3 for use in the assay.

A word on the IC50: it is the point on the concentration scale where inhibition reaches its midpoint. The clearance is the rate of elimination divided by the concentration. The low end stands for inefficient removal, the high end for efficient removal. The term half-life denotes the time in which the quantity being followed falls by half. Usually Ki stands for the dissociation constant of the complex between target and ligand, obtained from inhibition or displacement.

As to `COCCC[C@H](NC(=O)[C@@H]1CCCN1C(=O)[C@@H](Cc1ccccc1)NC(=O)OCc1ccccc1)B1OC(C)(C)C(C)(C)O1` [TRI 50b, Cbz-(R)-Phe-Pro-BoroMpg-OPinacol], the IC50 in data set [1] (TRI 50b added 1 minute prior to activator, read-out: IC50 plus pre-incubation) is 8 nM; in data set [1] (TRI 50b added after incubation with activator, read-out: IC50 without incubation), 3000 nM. Besides, in [2], the “effect on ADP, collagen or epinephrine induced aggregation of washed platelets” value is given as “does not have an effect”. Moreover, the “ANTITHROMBOTIC ACTIVITY” value in [3] (3.0 mg/kg iv) and in data set [3] (10 mg/kg iv) was “Active” throughout. Further, the “bleeding in shunt model” value in data set [3] (3 mg/kg to 10 mg/kg iv) is “without bleeding”. In addition, the “Bleeding time min (±SEM)” value in [4] (5 mg/kg iv) came out at 11.3 ± 1.2 min; in data set [4] (10 mg/kg iv), 30.4 ± 5.2 min. This compound returned a clearance in data set [5] of 10 mL/min/kg. Moreover, the half-life in data set [5] turned out to be 35 min. In data set [5], the MRT was 46 min. Moreover, the “hydrolysis to the acid form, half life” value in data set [6] was “short half life”. For the same compound, in data set [7], the inhibition constant Ki was 7 nM.
As to `COCCC[C@H](NC(=O)[C@@H]1CCCN1C(=O)[C@@H](Cc1ccccc1)NC(=O)OCc1ccccc1)B(O)O` [TRI 50c sodium salt, Cbz-(R)-Phe-(S)-Pro-(R)-Mpg-B(OH)2 monosodium salt], the “stability: effect of drying on purity” value in data set [8] (in words) was “not significantly reduced”. Moreover, the tolerability result in data set [9] is on record as “tolerated well with no adverse events”.
As for `COCCC[C@H](NC(=O)[C@@H]1CCCN1C(=O)[C@@H](Cc1ccccc1)NC(=O)OCc1ccccc1)B(O)O` [TRI 50c, Cbz-(R)-Phe-(S)-Pro-(R)-boroMpg-OH], the “Purity (% area)” value in data set [8] (non-dried) was 85.54 % area. Besides, the Amount in data set [8] (non-dried, 5 mg in 5 mL) turned out to be 947.3 µg/mL. In data set [5], the clearance was found to be 11.3 mL/min/kg, the half-life came out at 36.6 min and the MRT was 45 min.
For `COCCC[C@H](NC(=O)[C@@H]1CCCN1C(=O)[C@@H](Cc1ccccc1)NC(=O)OCc1ccccc1)B([O-])O.COCCC[C@H](NC(=O)[C@@H]1CCCN1C(=O)[C@@H](Cc1ccccc1)NC(=O)OCc1ccccc1)B([O-])O.[Mg+2]` [magnesium salt of TRI 50c], the “activity in thrombin amidolytic assay (Vmax)” value in [10] was “same activity as TRI 50b”.
